In ChEMBL document CHEMBL3885881, “DrugMatrix”:

Species on record: Rattus norvegicus
Format: toxicity, organism-based, Sprague-Dawley
Conditions: in vivo, ip, route intraperitoneal, vehicle 100 % SALINE; for ABSOLUTE EOSINOPHIL / ABSOLUTE LYMPHOCYTE / ABSOLUTE MONOCYTE / ABSOLUTE SEGMENTED NEUTROPHIL / BASOPHIL / EOSINOPHIL / ERYTHROCYTE COUNT / HEMATOCRIT / HEMOGLOBIN / LEUKOCYTE COUNT / LYMPHOCYTE / MEAN CORPUSCULAR HEMOGLOBIN / MEAN CORPUSCULAR HEMOGLOBIN CONCENTRATION / MEAN CORPUSCULAR VOLUME / MONOCYTE / NEUTROPHIL / NUCLEATED RED BLOOD CELLS / PLATELET COUNT: tissue Blood; for ALANINE AMINOTRANSFERASE / ALBUMIN / ALKALINE PHOSPHATASE / ASPARTATE AMINOTRANSFERASE / BLOOD UREA NITROGEN / CARBON DIOXIDE / CHLORIDE / CHOLESTEROL / CREATINE PHOSPHOKINASE / CREATININE / GLUCOSE / LACTATE DEHYDROGENASE / LIPASE / PHOSPHORUS / POTASSIUM / SODIUM / TOTAL BILIRUBIN / TOTAL PROTEIN / URIC ACID: tissue Plasma
[1] = 0 mg/kg, 6 h, vehicle control, dose level Control, time 0.25 day
[2] = 0 mg/kg, 24 h, vehicle control, dose level Control, time 1 day
[3] = 16 mg/kg, 6 h, dose level Low, time 0.25 day

Description: DrugMatrix - Regimen: Single

Structure (SMILES): C=CCO [ALLYL ALCOHOL]
- ABSOLUTE EOSINOPHIL [1]: 63 CELLS/uL
- ABSOLUTE LYMPHOCYTE [1]: 12886.67 CELLS/uL
- ABSOLUTE MONOCYTE [1]: 302.5 CELLS/uL
- ABSOLUTE SEGMENTED NEUTROPHIL [1]: 2997.83 CELLS/uL
- BASOPHIL [1]: 0%
- EOSINOPHIL [1]: 0.33%
- ERYTHROCYTE COUNT [1]: 5.45 x10E6/uL
- HEMATOCRIT [1]: 34.93%
- HEMOGLOBIN [1]: 13.88 G/DL
- LEUKOCYTE COUNT [1]: 16.25 x10E3/uL
- LYMPHOCYTE [1]: 79.17%
- MEAN CORPUSCULAR HEMOGLOBIN [1]: 25.48 pg
- MEAN CORPUSCULAR HEMOGLOBIN CONCENTRATION [1]: 39.77 G/DL
- MEAN CORPUSCULAR VOLUME [1]: 64.13 fL
- MONOCYTE [1]: 1.83%
- NEUTROPHIL [1]: 18.67%
- NUCLEATED RED BLOOD CELLS [1]: 0 /100WBC
- PLATELET COUNT [1]: 1184.67 x10E3/uL
- ALANINE AMINOTRANSFERASE [1]: 35 u/L
- ALBUMIN [1]: 4.25 G/DL
- ALKALINE PHOSPHATASE [1]: 281.83 u/L
- ASPARTATE AMINOTRANSFERASE [1]: 79.5 u/L
- BLOOD UREA NITROGEN [1]: 11.67 mg/dL
- CARBON DIOXIDE [1]: 27 mmol/L
- CHLORIDE [1]: 100.33 MEQ/L
- CHOLESTEROL [1]: 60.67 mg/dL
- CREATINE PHOSPHOKINASE [1]: 275.5 u/L
- CREATININE [1]: 0.13 mg/dL
- GLUCOSE [1]: 162.5 mg/dL
- LACTATE DEHYDROGENASE [1]: 258.83 u/L
- LIPASE [1]: 9.33 u/L
- PHOSPHORUS [1]: 11.42 mg/dL
- POTASSIUM [1]: 6.16 MEQ/L
- SODIUM [1]: 145.08 MEQ/L
- TOTAL BILIRUBIN [1]: 0.18 mg/dL
- TOTAL PROTEIN [1]: 5.73 G/DL
- URIC ACID [1]: 1.58 mg/dL
- ABSOLUTE EOSINOPHIL [2]: 18.5 CELLS/uL
- ABSOLUTE LYMPHOCYTE [2]: 12859.83 CELLS/uL
- ABSOLUTE MONOCYTE [2]: 190.83 CELLS/uL
- ABSOLUTE SEGMENTED NEUTROPHIL [2]: 1230.83 CELLS/uL
- BASOPHIL [2]: 0%
- EOSINOPHIL [2]: 0.17%
- ERYTHROCYTE COUNT [2]: 5.2 x10E6/uL
- HEMATOCRIT [2]: 33.25%
- HEMOGLOBIN [2]: 13.37 G/DL
- LEUKOCYTE COUNT [2]: 14.3 x10E3/uL
- LYMPHOCYTE [2]: 89.83%
- MEAN CORPUSCULAR HEMOGLOBIN [2]: 25.73 pg
- MEAN CORPUSCULAR HEMOGLOBIN CONCENTRATION [2]: 40.25 G/DL
- MEAN CORPUSCULAR VOLUME [2]: 64 fL
- MONOCYTE [2]: 1.33%
- NEUTROPHIL [2]: 8.67%
- NUCLEATED RED BLOOD CELLS [2]: 0 /100WBC
- PLATELET COUNT [2]: 1075.5 x10E3/uL
- ALANINE AMINOTRANSFERASE [2]: 54.17 u/L
- ALBUMIN [2]: 4.25 G/DL
- ALKALINE PHOSPHATASE [2]: 280.67 u/L
- ASPARTATE AMINOTRANSFERASE [2]: 84.67 u/L
- BLOOD UREA NITROGEN [2]: 13.33 mg/dL
- CARBON DIOXIDE [2]: 26.33 mmol/L
- CHLORIDE [2]: 99.67 MEQ/L
- CHOLESTEROL [2]: 72 mg/dL
- CREATINE PHOSPHOKINASE [2]: 620 u/L
- CREATININE [2]: 0.17 mg/dL
- GLUCOSE [2]: 169.17 mg/dL
- LACTATE DEHYDROGENASE [2]: 189.17 u/L
- LIPASE [2]: 9.67 u/L
- PHOSPHORUS [2]: 10.57 mg/dL
- POTASSIUM [2]: 5.16 MEQ/L
- SODIUM [2]: 142.2 MEQ/L
- TOTAL BILIRUBIN [2]: 0.18 mg/dL
- TOTAL PROTEIN [2]: 5.78 G/DL
- URIC ACID [2]: 1.25 mg/dL
- ABSOLUTE EOSINOPHIL [3]: 48.67 CELLS/uL
- ABSOLUTE LYMPHOCYTE [3]: 11033.33 CELLS/uL
- ABSOLUTE MONOCYTE [3]: 230.5 CELLS/uL
- ABSOLUTE SEGMENTED NEUTROPHIL [3]: 2270.83 CELLS/uL
- BASOPHIL [3]: 0%
- EOSINOPHIL [3]: 0.33%
- ERYTHROCYTE COUNT [3]: 5.38 x10E6/uL
- HEMATOCRIT [3]: 34.4%
- HEMOGLOBIN [3]: 13.45 G/DL
- LEUKOCYTE COUNT [3]: 13.58 x10E3/uL
- LYMPHOCYTE [3]: 81.17%
- MEAN CORPUSCULAR HEMOGLOBIN [3]: 25.12 pg
- MEAN CORPUSCULAR HEMOGLOBIN CONCENTRATION [3]: 39.12 G/DL
- MEAN CORPUSCULAR VOLUME [3]: 64.18 fL
- MONOCYTE [3]: 1.67%
- NEUTROPHIL [3]: 16.83%
- NUCLEATED RED BLOOD CELLS [3]: 0 /100WBC
- PLATELET COUNT [3]: 997.5 x10E3/uL
- ALANINE AMINOTRANSFERASE [3]: 66.83 u/L
- ALBUMIN [3]: 4.27 G/DL
- ALKALINE PHOSPHATASE [3]: 267.67 u/L
- ASPARTATE AMINOTRANSFERASE [3]: 90 u/L
- BLOOD UREA NITROGEN [3]: 9.33 mg/dL
- CARBON DIOXIDE [3]: 28.5 mmol/L
- CHLORIDE [3]: 100.17 MEQ/L
- CHOLESTEROL [3]: 68 mg/dL
- CREATINE PHOSPHOKINASE [3]: 295 u/L
- CREATININE [3]: 0.14 mg/dL
- GLUCOSE [3]: 153.5 mg/dL
- LACTATE DEHYDROGENASE [3]: 198.83 u/L
- LIPASE [3]: 11.83 u/L
- PHOSPHORUS [3]: 10.27 mg/dL
- POTASSIUM [3]: 5.27 MEQ/L
- SODIUM [3]: 144.05 MEQ/L
- TOTAL BILIRUBIN [3]: 0.1 mg/dL
- TOTAL PROTEIN [3]: 5.6 G/DL
- URIC ACID [3]: 1.15 mg/dL
